The results in this text go back to patent publication US12303505B2, “Tumor-treating pharmaceutical composition” (Eisai R&D Management Co., Ltd., priority 2017, dated 2025).

“Also recorded” adds a separate entry of the source. Counter-ions that a name gives are not always drawn.

Holding throughout (type): in vivo
Assay [1] has as its system Mouse breast cancer 4T1 cells. The experiment in a line: Antitumor effect in mouse breast cancer 4T1 orthotopic transplantation model. As for the experimental part:
Mouse breast cancer 4T1 cells (ATCC) were cultured by using RPMI1640 medium (Sigma-Aldrich Co. LLC) containing 10% FBS in a 5% CO2 incubator under conditions of 37° C. When the cells became an approximately 80% confluent state, the cells were recovered by using trypsin-EDTA. A suspension was prepared by adding Hank's balanced salt solution so as to be 1.0×10^7 cells/mL. 0.1 mL of the obtained cell suspension was transplanted to the right third mammary gland fat pads of five mice ([…], Charles River Laboratories Japan, Inc.) each of a control group, an E7386 25 mg/kg alone administration group, a lenvatinib mesylate 10 mg/kg alone administration group, and a combined administration group of 25 mg/kg E7386 and 10 mg/kg lenvatinib mesylate. From 9 days after the transplantation, E7386 (25 mg/kg, b.d.s., 14 days, oral administration) and lenvatinib mesylate (10 mg/kg, q.d., 14 days, oral administration) were administered alone or in combination to the alone administration group or the combined administration group. For the administration, E7386 was dissolved in 0.1 mol/L hydrochloric acid, and lenvatinib mesylate was dissolved in 3 mmol/L hydrochloric acid. Any drug was not administered to the control group.
When the start day of administration was defined as day 1, the major axis and minor axis of tumor developed in each mouse were then measured at day 3, day 6, day 9, and day 14 by using Digimatic Caliper (Mitutoyo Corp.).
(§1) The tumor volume and the relative tumor volume (RTV) were calculated according to the following expressions. Tumor volume (mm^3)=Tumor major axis (mm)×Tumor minor axis^2 (mm^2)/2 Relative tumor volume (RTV)=Tumor volume at the measurement day/Tumor volume at the start day of administration

The subject of assay [2] is Human hepatocellular carcinoma line SNU398 cells. The experiment in a line: Antitumor effect in human hepatocellular carcinoma line SNU398 transplantation model, nude mice. How it is done:
Human hepatocellular carcinoma line SNU398 cells (ATCC) were cultured by using RPMI1640 medium (Wako Pure Chemical Industries, Ltd.) containing 10% FBS in a 5% CO2 incubator under conditions of 37° C. When the cells became an approximately 80% confluent state, the cells were recovered by using trypsin-EDTA. A suspension was prepared by adding Hank's balanced salt solution containing 50% Matrigel to the cells so as to be 5.0×10^7 cells/mL. 0.1 mL of the obtained cell suspension was subcutaneously transplanted to the sides of the bodies of eight nude mice (CAnN.Cg-Foxn1^nu/CrlCrlj, Charles River Laboratories Japan, Inc.) each of a control group, an E7386 50 mg/kg alone administration group, a lenvatinib mesylate 10 mg/kg alone administration group, and a combined administration group of 12.5, 25 or 50 mg/kg E7386 and 10 mg/kg lenvatinib mesylate. From 9 days after the transplantation, E7386 (12.5, 25, or 50 mg/kg, b.d.s., 14 days, oral administration) and lenvatinib mesylate (10 mg/kg, q.d., 14 days, oral administration) were administered alone or in combination to the alone administration group or the combined administration group. For the administration, E7386 was dissolved in 0.1 mol/L hydrochloric acid, and lenvatinib mesylate was dissolved in 3 mmol/L hydrochloric acid. Any drug was not administered to the control group.
When the start day of administration was defined as day 1, the major axis and minor axis of tumor developed in each mouse were then measured at day 6, day 9, day 12, and day 15 by using Digimatic Caliper (Mitutoyo Corp.).
as §1

Assay [3] concerns human anaplastic thyroid cancer cell line HTC/C3. Description: Antitumor effect in human anaplastic thyroid cancer cell line HTC/C3 transplantation model, nude mice. As for the experimental part:
A human anaplastic thyroid cancer cell line HTC/C3 (JCBR Cell Bank) was cultured by using D-MEM High Glucose medium (Wako Pure Chemical Industries, Ltd.) containing 10% FBS in a 5% CO2 incubator under conditions of 37° C. When the cells became an approximately 80% confluent state, the cells were recovered by using trypsin-EDTA. A suspension was prepared by adding Hank's balanced salt solution containing 50% Matrigel to the cells so as to be 1.0×10^7 cells/mL. 0.1 mL of the obtained cell suspension was subcutaneously transplanted to the sides of the bodies of five nude mice (CAnN.Cg-Foxn1^nu/CrlCrlj, Charles River Laboratories Japan, Inc.) each of a control group, an E7386 12.5, 25 or 50 mg/kg alone administration group, a lenvatinib mesylate 10 mg/kg alone administration group, and a combined administration group of 12.5, 25 or 50 mg/kg E7386 and 10 mg/kg lenvatinib mesylate. From 11 days after the transplantation, E7386 (12.5, 25, or 50 mg/kg, b.d.s., 14 days, oral administration) and lenvatinib mesylate (10 mg/kg, q.d., 14 days, oral administration) were administered alone or in combination to the alone administration group or the combined administration group. For the administration, E7386 was dissolved in 0.1 mol/L hydrochloric acid, and lenvatinib mesylate was dissolved in 3 mmol/L hydrochloric acid. 0.1 mol/L hydrochloric acid (b.d.s., 14 days) was administered to the control group.
When the start day of administration was defined as day 1, the major axis and minor axis of tumor developed in each mouse were then measured at day 4, day 8, day 11, and day 15 by using Digimatic Caliper (Mitutoyo Corp.).
as §1

Assay [4] has as its system Human hepatocellular carcinoma line HepG2 cells. The experiment in a line: Tumor vessel suppressive effect (CD31/α-SMA co-staining, MVD and PCI) in human hepatocellular carcinoma HepG2 subcutaneous transplantation model, nude mice. Conditions: FIG. 22; lenvatinib mesylate 10 mg/kg q.d. alone, 14 days oral; vs control group. As for the experimental part:
For the administration, E7386 was dissolved in 0.1 mol/L hydrochloric acid, and lenvatinib mesylate was dissolved in 3 mmol/L hydrochloric acid. Any drug was not administered to the control group.

The mark [5] stands for this setting: Day 15, E7386 50 mg/kg b.d.s. oral alone.
[6] abbreviates: Day 6, lenvatinib mesylate 10 mg/kg q.d. oral alone.
[7] abbreviates: Day 9, lenvatinib mesylate 10 mg/kg q.d. oral alone.
[8] abbreviates: Day 15, lenvatinib mesylate 10 mg/kg q.d. oral alone.

With `C=CCN1CC(=O)N2[C@@H](Cc3ccc(O)cc3F)C(=O)N(Cc3cccc(N4CC(N5CCN(CC)CC5)C4)n3)C[C@@H]2N1C(=O)NCc1ccccc1` [E7386, (6S,9aS)—N-Benzyl-8-({6-[3-(4-ethylpiperazin-1-yl)azetidin-1-yl]pyridin-2-yl}methyl)-6-(2-fluoro-4-hydroxybenzyl)-4,7-dioxo-2-(prop-2-en-1-yl)hexahydro-2H-pyrazino[2,1-c][1,2,4]triazine-1(6H)-carboxamide], the “Relative tumor volume (RTV), mean±SD” value was determined as 1.59 ± 0.38 in assay [1] (Day 3, E7386 25 mg/kg b.d.s. oral alone); 1.75 ± 0.42 in assay [1] (Day 6, E7386 25 mg/kg b.d.s. oral alone); 2.17 ± 0.76 in assay [1] (Day 9, E7386 25 mg/kg b.d.s. oral alone); 2.32 ± 0.68 in assay [1] (Day 14, E7386 25 mg/kg b.d.s. oral alone); 3.74 ± 0.75 in assay [2] (Day 6, E7386 50 mg/kg b.d.s. oral alone); 6.31 ± 1.74 in assay [2] (Day 9, E7386 50 mg/kg b.d.s. oral alone). In addition, the “Relative tumor volume (RTV), mean±SD” value in assay [2] (Day 12, E7386 50 mg/kg b.d.s. oral alone) is listed as 7.33 ± 0.89; in assay [2] (setting [5]), 10.1 ± 1.03; in assay [3] (Day 4, E7386 12.5 mg/kg b.d.s. oral alone) it was 1.68 ± 0.13; in assay [3] (Day 4, E7386 25 mg/kg b.d.s. oral alone) it was 1.72 ± 0.10; in assay [3] (Day 4, E7386 50 mg/kg b.d.s. oral alone) it was 1.74 ± 0.09; in assay [3] (Day 8, E7386 12.5 mg/kg b.d.s. oral alone), 4.02 ± 0.40. For the same compound, the “Relative tumor volume (RTV), mean±SD” value was found to be 3.99 ± 0.62 in assay [3] (Day 8, E7386 25 mg/kg b.d.s. oral alone); 4.00 ± 0.66 in assay [3] (Day 8, E7386 50 mg/kg b.d.s. oral alone); 6.27 ± 0.93 in assay [3] (Day 11, E7386 12.5 mg/kg b.d.s. oral alone); 6.44 ± 1.09 in assay [3] (Day 11, E7386 25 mg/kg b.d.s. oral alone); 5.85 ± 1.42 in assay [3] (Day 11, E7386 50 mg/kg b.d.s. oral alone); 8.58 ± 2.48 in assay [3] (Day 15, E7386 12.5 mg/kg b.d.s. oral alone). Also, the “Relative tumor volume (RTV), mean±SD” value is 8.81 ± 2.14 in assay [3] (Day 15, E7386 25 mg/kg b.d.s. oral alone) and 7.83 ± 2.28 in assay [3] (setting [5]).

For the compound `COc1cc2nccc(Oc3ccc(NC(=O)NC4CC4)c(Cl)c3)c2cc1C(N)=O` [Lenvatinib mesylate, 4-(3-chloro-4-(cyclopropylaminocarbonyl)aminophenoxy)-7-methoxy-6-quinolinecarboxamide, reference compound], in assay [4], the “PCI (pericyte coverage index) (in words)” value is “markedly increased; also recorded: statistically significantly increased pericyte coverage as compared with the control group”. Besides, the “Relative tumor volume (RTV), mean±SD” value in assay [1] (Day 3, lenvatinib mesylate 10 mg/kg q.d. oral alone) was 1.36 ± 0.28; in assay [1] (setting [6]), 1.46 ± 0.28; in assay [1] (setting [7]), 1.75 ± 0.41; in assay [1] (Day 14, lenvatinib mesylate 10 mg/kg q.d. oral alone), 1.99 ± 0.26; in assay [2] (setting [6]), 3.98 ± 1.00; in assay [2] (setting [7]), 6.48 ± 1.74. Besides, the “Relative tumor volume (RTV), mean±SD” value was 8.33 ± 2.08 in assay [2] (Day 12, lenvatinib mesylate 10 mg/kg q.d. oral alone); 9.71 ± 2.30 in assay [2] (setting [8]); 1.71 ± 0.10 in assay [3] (Day 4, lenvatinib mesylate 10 mg/kg q.d. oral alone); 3.57 ± 0.54 in assay [3] (Day 8, lenvatinib mesylate 10 mg/kg q.d. oral alone); 5.15 ± 1.07 in assay [3] (Day 11, lenvatinib mesylate 10 mg/kg q.d. oral alone); 6.23 ± 1.71 in assay [3] (setting [8]).
